Experimental data taken from patent US5506213A, “Adminstration of 2'-halo-2'-deoxy adenosine to treat inflammatory bowel disease” (priority 1994, dated 1996).

What was measured:
[1] = tested on: antigen-induced arthritis; assay: Antigen-induced arthritis in rabbits; assay type: in vivo; details: CdA 1 mg/kg, tepoxalin 25 mg/kg, naproxen 5 mg/kg
Protocol: Antigen-induced arthritis in rabbits is an animal model of rheumatoid arthritis. In this model, the rabbits are sensitized to an antigen such as ovalbumin or methylated bovine serum albumin in an adjuvant. Several weeks later, the same antigen is injected directly into the joints of the animal. […] Pettipher et al., Br. J. Exp. Path., 69:113-122 (1988).
Rabbits with antigen-induced arthritis were treated with CdA (1 mg/kg), tepoxalin (25 mg/kg) or naproxen (5 mg/kg).

[2] = pH value of 1 at 37 degrees C.; cited from earlier work
[3] = tested on: HIV; assay: Inhibition of p24 (gag) production of HIV from MDM cells, 3-day assay; assay type: cell-based; details: 0.1-100 μM
[4] = tested on: adenosine deaminase; details: cited from earlier work
[5] = tested on: Adenocarcinoma 755 (Ad755); details: cited from earlier work
[6] = tested on: Peripheral blood lymphocytes; assay: Direct comparative cytotoxicity assay (Table II), peripheral blood lymphocytes; assay type: cell-based, human; details: Peripheral blood lymphocytes
Excerpt: (§1) The two compounds, CdA and CAFdA, were also compared for in vitro activity against another group of human cell lines in a direct comparative assay.
(§2) ^1 Concentration that produced 50 percent reduction in all numbers

[7] = tested on: T cell line Molt-4; assay: cells; details: Homo sapiens
Protocol: (§5) Seven different cell lines were treated with varying concentrations of 2-chloro-9,1'-beta-2'-deoxy-2'-fluoro-D-arabinofuranosyladenine (CAFdA) to determine percent viability. CAFdA concentrations ranging from 0 to about 260 nM were used to treat each cell line in vitro.

[8] = tested on: CEM, wild type; assay: Direct comparative cytotoxicity assay (Table II), CEM wild type; assay type: cell-based, human; details: CEM, wild type
Excerpt: as §1, §2
(§3) ^2 CEM cells are T lymphoblasts; DHL9 cells are lymphoblasts.

[9] = tested on: T cell line CEM; assay: cells; details: Homo sapiens
Protocol: as §5

[10] = tested on: delayed-type hypersensitivity (DTH) response; assay: Delayed-type hypersensitivity to ovalbumin in guinea pigs, oral and intraperitoneal treatment; assay type: in vivo, guinea pig; details: dexamethasone 5 mg/kg, CdA or CAFdA 1 mg/kg, 24 and 48 hours, p<0.01
Protocol: (§4) Delayed-type hypersensitivity (DTH) is a cell-mediated immune response that typically takes longer than 12 hours to develop. In the guinea pig, a DTH reaction to an antigen can be established by first immunizing the animal with the antigen in an adjuvant such as Freund's complete adjuvant. Subsequent intradermal injection of the antigen causes no change for at least 10 hours, after which there is a gradual increase in erythema and swelling in response to antigen injection. This response peaks about at about 24 hours after challenge, then gradually subsides.
Histologically, the inflammatory response is characterized by intense inundation of the site with mononuclear cells, of which about half are lymphocytes and the other half monocytes. DTH is therefore an indicator of a monocyte-mediated immune reaction.
In one study, guinea pigs were sensitized to ovalbumin in adjuvant. The animals were then treated either orally or intraperitoneally with saline (control), dexamethasone (5 mg/kg), CdA (1 mg/kg) or CAFdA (1 mg/kg). The animals were then injected with ovalbumin intradermally to elicit the DTH response. The mean area of the swelling size was measured for each animal (nine or ten animals were treated for each protocol).

[11] = tested on: monocytes; assay: Direct comparative cytotoxicity assay (Table II), monocytes; assay type: cell-based, human; details: Monocytes
Excerpt: as §1, §2

[12] = tested on: DHL9, wild type; assay: Direct comparative cytotoxicity assay (Table II), DHL9 wild type; assay type: cell-based, human; details: DHL9, wild type
Excerpt: as §1, §2, §3

[13] = tested on: DHL9, Increased ribonucleotide reduction; assay: Direct comparative cytotoxicity assay (Table II), DHL9 increased ribonucleotide reduction; assay type: cell-based, human; details: DHL9, Increased ribonucleotide reduction
Excerpt: as §1, §2, §3

[14] = tested on: monocyte-like cell line HL-60; assay: cells; details: Homo sapiens
Protocol: as §5

[15] = tested on: CEM, Increased 5'-nucleoside; assay: Direct comparative cytotoxicity assay (Table II), CEM increased 5'-nucleoside; assay type: cell-based, human; details: CEM, Increased 5'-nucleoside
Excerpt: as §1, §2, §3

[16] = tested on: monocyte-like cell line U937; assay: cells; details: Homo sapiens, U-937
Protocol: as §5

[17] = tested on: monocyte-like cell line THP-1; assay: cells; details: Homo sapiens
Protocol: as §5

[18] = tested on: delayed-type hypersensitivity (DTH) reaction; assay: Delayed-type hypersensitivity to ovalbumin in guinea pigs, different dosages of CdA; assay type: in vivo, guinea pig; details: dexamethasone 5 mg/kg; 24 and 48 hours post-challenge; p<0.01
Protocol: as §4
In another study, the effects of different dosages of CdA on the DTH reaction were examined. Guinea pigs sensitized to ovalbumin were treated with saline (control), dexamethasone (5 mg/kg), and CdA at 1 mg/kg or 0.1 mg/kg. Three days after treatment, the animals were challenged with ovalbumin intradermally. The areas of the skin lesions were measured at 6, 24, and 48 hours after challenge.

[19] = tested on: HIV; details: cultured human T lymphoblasts; cited from earlier work
[20] = tested on: HIV; details: cited from earlier work
[21] = Homo sapiens, 120 h, read-out: ID50: concentration that produced 50 percent reduction in all numbers after five days

COc1ccc2cc([C@H](C)C(=O)O)ccc2c1 [Naproxen, naproxen, reference compound]
pathological examination of joints compared to untreated controls [1]: appeared to exacerbate the inflammation and tissue destruction

Nc1ncnc2c1ncn2[C@H]1CC[C@@H](CO)O1 [ddA, 2',3'-dideoxyadenosine]
half-time [2]: 35 s | inhibition of p24 (gag) production [3]: none of those compounds provided any inhibition | substrate behaviour toward adenosine deaminase [4]: known substrate for adenosine deaminase

Nc1nc(F)nc2c1ncn2[C@@H]1O[C@H](CO)[C@@H](O)[C@H]1O [2-fluoroadenosine]
tolerated dose ([5]; C57 black mice implanted with Ad755): about 1 milligram per kilogram of body weight | antitumor activity at the tolerated level ([5]; against Ad755 as well as leukemia L1210 and the Erlich ascites tumor): inactive | substrate behaviour toward adenosine deaminase [4]: negligible activity

Nc1nc(Cl)nc2c1ncn2[C@@H]1O[C@H](CO)[C@@H](O)[C@@H]1F [CAFdA, 2-chloro-9,1'-beta-2'-deoxy-2'-fluoro-D-arabinofuranosyladenine]
IC50 ([6]; Homo sapiens, Lymphocyte, 120 h, read-out: ID50: concentration that produced 50 percent reduction in all numbers after five days): 18 nM | ID50 ratio CAFdA / CdA [6]: 1.9 | viability at 0.06 µM [7]: < 20% | viability at 0.13 µM [7]: < 10% | ID50 ratio CAFdA / CdA [8]: 3.1 | IC50 [8, 21]: 67 nM | viability at 0.05 µM [9]: ≤ 60% | viability at 0.06 µM [9]: < 20% | viability at 0.13 µM [9]: < 10% | swelling after ovalbumin challenge compared to saline control ([10]; intraperitoneal): significant inhibition of swelling | swelling after ovalbumin challenge compared to saline control ([10]; oral): significant inhibition of swelling | IC50 ([11]; Homo sapiens, Monocyte, 120 h, read-out: ID50: concentration that produced 50 percent reduction in all numbers after five days): 47 nM | ID50 ratio CAFdA / CdA [11]: 2.1 | ID50 ratio CAFdA / CdA [12]: 1.9 | IC50 [12, 21]: 150 nM | ID50 ratio CAFdA / CdA [13]: 15. | IC50 [13, 21]: 6000 nM | viability at 0.05 µM [14]: ≤ 60% | viability at 0.06 µM [14]: < 20% | viability at 0.13 µM [14]: < 10% | ID50 ratio CAFdA / CdA [15]: 2.1 | viability at 0.06 µM [16]: < 20% | viability at 0.13 µM [16]: < 10% | viability at 0.05 µM [17]: ≤ 60% | viability at 0.06 µM [17]: < 20% | viability at 0.13 µM [17]: < 10%

C[C@@H]1C[C@H]2[C@@H]3CCC4=CC(=O)C=C[C@]4(C)[C@@]3(F)[C@@H](O)C[C@]2(C)[C@@]1(O)C(=O)CO [dexamethasone, reference compound]
swelling compared to control saline treated animals [18]: effective at inhibiting swelling | swelling after ovalbumin challenge compared to saline control ([10]; intraperitoneal): significant inhibition of swelling | swelling after ovalbumin challenge compared to saline control ([10]; oral): significant inhibition of swelling

Cc1cn([C@H]2C[C@H](N=[N+]=[N-])[C@@H](CO)O2)c(=O)[nH]c1=O [AZT, 3'-azido-3'-deoxythymidine]
replication of HIV [19]: blocked the replication of HIV | virus isolation rates from peripheral blood cells ([20]; clinical trials with AZT): no effect | CD4 (T4) peripheral blood cell counts ([20]; patients with AIDS or AIDS-related complex): elevation of CD4 (T4) peripheral blood cell counts | tolerability ([20]; patients with AIDS or AIDS-related disease complexes): well tolerated | inhibition of p24 (gag) production [3]: none of those compounds provided any inhibition
